“And” between values parts separate entries of the source, which are not always exact repeats. Equal values may be shown once.
Columns and labels:
[1] = test system: 293T cells; assay: Cell transfection test of LNP formulation of eGFP-mRNA (optimization of preparation conditions); format: cell-based; settings: for transfection efficiency at different molar ratios of polymer-conjugated lipid DMG-PEG2000 to carrier: 0.5% to 15%; for transfection effect at different molar ratios of cationic lipid, neutral lipid, structured lipid and polymer-conjugated lipid: 75:5:15:5 to 25:5:65:5
Method: The cationic lipid compound YK-407 synthesized in Example 1 was dissolved in ethanol with DSPC (AVT (Shanghai) Pharmaceutical Technology Co., Ltd.), cholesterol (AVT (Shanghai) Pharmaceutical Technology Co., Ltd.) and DMG-PEG2000 according to a molar ratio of 49:10:39.5:1.5, respectively, to prepare an ethanol lipid solution. The ethanol lipid solution was quickly added to citrate buffer (pH=4-5) by ethanol injection method, and vortexed for 30s for later use. eGFP-mRNA was diluted in citrate buffer (pH=4-5) to give an aqueous mRNA solution. A certain volume of liposome solution and mRNA aqueous solution were used to prepare liposomes at weight ratios of total lipids to mRNA of 5:1, 10:1, 15:1, 20:1, 30:1 and 35:1, respectively. The mixtures were sonicated at 25° C. for 15 min (with an ultrasonic frequency of 40 kHz and an ultrasonic power of 800 W). The resulted liposomes were diluted to 10 times volume with PBS, and then ultrafiltered with a 300KDa ultrafiltration tube to remove ethanol. Then the volume was fixed to a certain volume with PBS to give an LNP formulation encapsulating eGFP-mRNA using cationic lipid YK-407/DSPC/cholesterol/DMG-PEG2000 (49:10:39.5:1.5 in molar percentage).
The LNP formulation encapsulating eGFP-mRNA was prepared according to the method in 1, wherein the molar ratios of cationic lipid YK-407 to neutral lipid DSPC were 1:1, 3:1, 3.5:1, 4:1, 4.5:1, 4.9:1, 10:1, 15:1 and 20:1.
The LNP formulation encapsulating eGFP-mRNA was prepared according to the method in 1, wherein the cationic lipid in the carrier was YK-407, and the molar ratios of the polymer-conjugated lipid DMG-PEG2000 to the carrier were 0.5%, 1.5%, 3.5%, 5%, 10% and 15%, respectively.
The LNP formulation encapsulating eGFP-mRNA was prepared according to the method in 1, wherein the molar ratios of cationic lipid YK-407, neutral lipid DSPC, structured lipid cholesterol and polymer-conjugated lipid DMG-PEG2000 were 75:5:15:5, 49:10:39.5:1.5, 45:10:43.5:1.5, 45:25:20:10, 40:10:48.5:1.5, 35:10:53.5:1.5 and 25:5:65:5, respectively.
Cell recovery and passage: 293T cells were recovered, cultured in a culture dish, and passaged to the required number of cells.
Seeding plate: The cells in the culture dish were digested and counted. Cells were spread in a 96-well plate at 10,000 cells per well and in a 12-well plate at 150,000 cells per well. Cells were cultured overnight until the cells adhered to the wall.
Cell transfection test: The LNP formulation containing 1.5 μg of eGFP-mRNA prepared in Example 2 (the cationic lipid in the carrier was YK-407) and the Lipofectamin 3000 formulation of eGFP-mRNA were added respectively to the cell culture medium of the 12-well plate, and further incubated for 24 hours. The transfection efficiency of different samples was then investigated according to the fluorescence intensity by observing with a fluorescence microscope.

[2] = Particle size and polydispersity index (PDI) of lipid nanoparticles by dynamic light scattering; format: physicochemical; settings: for PDI: LNP formulation of the cationic lipid, 25° C.; for Particle size: LNP formulation of the cationic lipid/DSPC/cholesterol/DMG-PEG2000 49:10:39.5:1.5, 25° C.
Method: The particle size and polydispersity index (PDI) were determined by dynamic light scattering using Malvern laser particle size analyzer.
10 μL of the liposome solution was weighed, diluted to 1 mL with RNase-free deionized water, and added to the sample pool. Each sample was measured in triplicate. The measurement conditions were: […] scattering angle, and 25° C.

[3] = test system: female BALB/C mice; assay: Distribution of liposomes in mice (protein expression in liver, spleen, lung, heart and kidney); format: in vivo; settings: mouse, in vivo
Method: The LNP formulation (prepared according to Example 4) containing […] Fluc-mRNA was injected intramuscularly into female BALB/C mice aged 4-6 weeks and weighed 17-19 g, and the mice were intraperitoneally injected with fluorescent imaging substrate at specific time points after administration (6h, 24 h, 48h and 7d), where the mice were allowed to free move for 5 minutes, and then the average radiation intensity (corresponding to fluorescence expression intensity) of the protein expression of the mRNA carried by the LNP in the mice was detected by the IVIS Spectrum small animal in vivo imaging system.
Current mRNA vaccines usually express proteins in muscle.

[4] = test system: 293T cells; assay: Cell survival rate assay (CCK-8); format: cell-based; settings: for Cell survival rate: LNP with 1.5 μg Fluc-mRNA, 24 hours, CCK-8; for cell survival rate higher than ALC-0315: difference vs ALC-0315; for cell survival rate higher than HIMA: difference vs HIMA (HHMA); for cell survival rate higher than Lipofectamine 3000: difference vs Lipofectamine 3000; for cell survival rate higher than SM-102: difference vs SM-102; for cell survival rate higher than YK-404: difference vs YK-404; for cell survival rate higher than YK-405: difference vs YK-405; for cell survival rate higher than YK-406: difference vs YK-406; for cell survival rate higher than YK-408: difference vs YK-408; for cell survival rate higher than YK-409: difference vs YK-409; for cell survival rate higher than YK-410: difference vs YK-410; for cell survival rate higher than YK-411: difference vs YK-411; for cell survival rate higher than YK-412: difference vs YK-412; for cell survival rate higher than YK-413: difference vs YK-413; for cell survival rate higher than YK-414: difference vs YK-414; for cell survival rate higher than YK-415: difference vs YK-415; for cell survival rate higher than YK-416: difference vs YK-416; for cell survival rate higher than YK-417: difference vs YK-417; for cell survival rate higher than YK-418: difference vs YK-418; for cell survival rate higher than YK-419: difference vs YK-419; for cell survival rate higher than YK-420: difference vs YK-420; for cell survival rate higher than YK-421: difference vs YK-421; for cell survival rate higher than YK-424: difference vs YK-424; for cell survival rate higher than compound 21: difference vs compound 21; for cell survival rate higher than compound 23: difference vs compound 23; for cytotoxicity reduced compared with YK-411: rounded summary statement vs YK-411
Method in brief: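 293T cells seeded at 10,000 cells/well, cultured overnight, then exposed 24 h to LNP carrying 1.5 μg Fluc-mRNA (cationic:neutral:structured:PEG-type lipid 49:10:39.5:1.5) or Lipofectamine 3000. Viability read by CCK-8, 1 h incubation, absorbance at 450 nm.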

With `CCCCCCCCC(CCCCCCCC)C(=O)OCCCCCCN(CCO)CCN(CCO)CCCCCCOC(=O)C(CCCCCCCC)CCCCCCCC` [YK-402] as the molecule, how does the “transfection efficiency at different molar ratios of polymer-conjugated lipid DMG-PEG2000 to carrier” value [1] read?
Its value is “same results”.

And the “transfection effect at different molar ratios of cationic lipid, neutral lipid, structured lipid and polymer-conjugated lipid” value [1]?
Its value is “same results”.

And the PDI [2]?
Its PDI is 17.1%.

And the Particle size [2]?
The Particle size was 155 nm.

And the “protein expression in the liver” value ([3]; female, BALB/C, 6 h)?
Its value is “reduced compared with SM-102”.

What about the “protein expression in the liver” value [3] of the same molecule?
Its value is “had protein expression in the liver”.

And the “protein expression in the spleen” value [3]?
The value was “had protein expression in the spleen”.

And the Cell survival rate [4]?
The Cell survival rate was 72.70%.

What about the “cell survival rate higher than ALC-0315” value [4] of the same molecule?
Its value is 25.49%.

And the “cell survival rate higher than HIMA” value [4]?
Its value is 8.43%.

And the “cell survival rate higher than Lipofectamine 3000” value [4]?
Its value is 51.04%.

And the “cell survival rate higher than SM-102” value [4]?
The value was 4.80%.

And the “cell survival rate higher than YK-404” value [4]?
Its value is 30.58%.

And the “cell survival rate higher than YK-405” value [4]?
Its value is 30.84%.

What about the “cell survival rate higher than YK-406” value [4] of the same molecule?
The value was 47.74%.

What about the “cell survival rate higher than YK-408” value [4] of the same molecule?
Its value is 30.39%.

What about the “cell survival rate higher than YK-409” value [4] of the same molecule?
Its value is 26.59%.

What about the “cell survival rate higher than YK-410” value [4] of the same molecule?
The value was 27.78%.

And the “cell survival rate higher than YK-411” value [4]?
Its value is 56.37%.

What about the “cell survival rate higher than YK-412” value [4] of the same molecule?
The value was 18.56%.

And the “cell survival rate higher than YK-413” value [4]?
The value was 25.50%.

And the “cell survival rate higher than YK-414” value [4]?
Its value is 43.95%.

What about the “cell survival rate higher than YK-415” value [4] of the same molecule?
The value was 11.54%.

What about the “cell survival rate higher than YK-416” value [4] of the same molecule?
Its value is 31.73%.

What about the “cell survival rate higher than YK-417” value [4] of the same molecule?
The value was 51.36%.

And the “cell survival rate higher than YK-418” value [4]?
Its value is 51.65%.

What about the “cell survival rate higher than YK-419” value [4] of the same molecule?
The value was 33.78%.

What about the “cell survival rate higher than YK-420” value [4] of the same molecule?
Its value is 37.11%.

What about the “cell survival rate higher than YK-421” value [4] of the same molecule?
Its value is 36.99%.

And the “cell survival rate higher than YK-424” value [4]?
Its value is 44.77%.

And the “cell survival rate higher than compound 21” value [4]?
The value was 4.86%.

And the “cell survival rate higher than compound 23” value [4]?
The value was 3.59%.

And the “cytotoxicity reduced compared with YK-411” value [4]?
The value was 50%.

For `CCCCCCCCCCCOC(=O)CCCN(CCO)CCN(CCO)CCCCCC(=O)OC(CCCCCCCC)CCCCCCCC` [YK-407], which “transfection efficiency at different molar ratios of polymer-conjugated lipid DMG-PEG2000 to carrier” value [1] is on record?
The value was “the transfection efficiency was the highest when the molar ratio was 1.5%”.

What about the “transfection effect at different molar ratios of cationic lipid, neutral lipid, structured lipid and polymer-conjugated lipid” value [1] of the same molecule?
Its value is “the transfection effect was the best when the ratio was 40:10:48.5:1.5”.

And the “transfection efficiency at different molar ratios of cationic lipid to neutral lipid DSPC” value ([1]; ratios 1:1 to 20:1)?
Its value is “the transfection efficiency was the highest at the molar ratio of cationic lipid to neutral lipid of 4:1”.

What about the “transfection effect at different weight ratios of carrier to mRNA” value ([1]; ratios 5:1, 10:1, 15:1, 20:1, 30:1 and 35:1) of the same molecule?
The value was “the ratio of 15:1 had the best transfection effect”.

And the PDI [2]?
Its PDI is 16.6%.

And the Particle size [2]?
Its Particle size is 162 nm.

And the “protein expression in the liver” value [3]?
Its value is “had no protein expression in the liver”.

And the “protein expression in the spleen” value [3]?
The value was “had protein expression in the spleen”.

And the Cell survival rate [4]?
Its Cell survival rate is 71.37%.

And the “cell survival rate higher than ALC-0315” value [4]?
The value was 24.16%.

And the “cell survival rate higher than HIMA” value [4]?
Its value is 7.10%.

What about the “cell survival rate higher than Lipofectamine 3000” value [4] of the same molecule?
Its value is 49.71%.

What about the “cell survival rate higher than SM-102” value [4] of the same molecule?
Its value is 3.47%.

What about the “cell survival rate higher than YK-404” value [4] of the same molecule?
The value was 29.25%.

And the “cell survival rate higher than YK-405” value [4]?
The value was 29.51%.

And the “cell survival rate higher than YK-406” value [4]?
Its value is 46.41%.

What about the “cell survival rate higher than YK-408” value [4] of the same molecule?
Its value is 29.06%.

And the “cell survival rate higher than YK-409” value [4]?
Its value is 25.26%.

And the “cell survival rate higher than YK-410” value [4]?
Its value is 26.45%.

What about the “cell survival rate higher than YK-411” value [4] of the same molecule?
Its value is 55.04%.

And the “cell survival rate higher than YK-412” value [4]?
Its value is 17.23%.

What about the “cell survival rate higher than YK-413” value [4] of the same molecule?
The value was 24.17%.

And the “cell survival rate higher than YK-414” value [4]?
The value was 42.62%.

And the “cell survival rate higher than YK-415” value [4]?
Its value is 10.21%.

And the “cell survival rate higher than YK-416” value [4]?
The value was 30.40%.

And the “cell survival rate higher than YK-417” value [4]?
Its value is 50.03%.

And the “cell survival rate higher than YK-418” value [4]?
Its value is 50.32%.

What about the “cell survival rate higher than YK-419” value [4] of the same molecule?
Its value is 32.45%.

What about the “cell survival rate higher than YK-420” value [4] of the same molecule?
The value was 35.78%.

And the “cell survival rate higher than YK-421” value [4]?
The value was 35.66%.

What about the “cell survival rate higher than YK-424” value [4] of the same molecule?
The value was 43.44%.

What about the “cell survival rate higher than compound 21” value [4] of the same molecule?
The value was 3.53%.

What about the “cell survival rate higher than compound 23” value [4] of the same molecule?
The value was 2.26%.

And the “cytotoxicity reduced compared with YK-411” value [4]?
The value was 50% and 55%.
